Drawing on ChEMBL document CHEMBL3627679, “Synthesis and evaluation of C-5 modified 2'-deoxyuridine monophosphates as inhibitors of M. tuberculosis thymidylate synthase” (Bioorg Med Chem, 2015), this text covers inhibition, Activity and IC50 for seven compounds.

Assay [1] deals with Mycobacterium tuberculosis. As to the kind of experiment: Inhibition of Mycobacterium tuberculosis ThyA using dUMP as substrate up to 100 uM measured immediatedly and at 10 mins post mTHF addition by spectrophotometric analysis.
Assay [2] relates to Mycobacterium tuberculosis. Nature of the assay: (§1) Inhibition of Mycobacterium tuberculosis ThyX using [5-3H]dUMP as substrate after 10 mins by liquid scintillation counting analysis.
Assay [3] deals with Mycobacterium tuberculosis. As to the kind of experiment: Activation of Mycobacterium tuberculosis ThyA using dUMP as substrate up to 100 uM measured immediatedly and at 10 mins post mTHF addition by spectrophotometric analysis.
The nature of assay [4]: as §1.

Active and inactive are the calls of the source. The rule behind the calls is not given here.

With `COCCOCCOCCOCc1cn([C@H]2C[C@H](O)[C@@H](COP(=O)(O)O)O2)c(=O)[nH]c1=O`, the inhibition entry in assay [1] and in assay [2] was “inactive” each time.
Regarding `CCCCCCCCCCCOCc1cn([C@H]2C[C@H](O)[C@@H](COP(=O)(O)O)O2)c(=O)[nH]c1=O`, the inhibition entry in assay [1] is “inactive”. The outcome in assay [3] was Active. In addition, the half-inhibitory concentration (IC50) in assay [4] was determined as 8.32 µM.
With `CCCCCCCCCCCCOCc1cn([C@H]2C[C@H](N=[N+]=[N-])[C@@H](COP(=O)(O)O)O2)c(=O)[nH]c1=O`, the inhibition entry in assay [1] and in assay [2] was “inactive” in each case.
As to `CCCCCCCCCCOCc1cn([C@H]2C[C@H](O)[C@@H](COP(=O)(O)O)O2)c(=O)[nH]c1=O`, the inhibition result in assay [1] and in assay [2] was “inactive” each time.
On to `CCCCCCCCCCCCOCc1cn([C@H]2C[C@H](O)[C@@H](COP(=O)(O)O)O2)c(=O)[nH]c1=O`, for which the inhibition entry in assay [1] and in assay [2] was “inactive” each time.
Take `CCCCCCCCCCc1cn(Cc2cn([C@H]3C[C@H](O)[C@@H](COP(=O)(O)O)O3)c(=O)[nH]c2=O)nn1`: the inhibition result in assay [1] and in assay [2] was “inactive” each time.
In the case of `CCCCCCCCc1cn(Cc2cn([C@H]3C[C@H](O)[C@@H](COP(=O)(O)O)O3)c(=O)[nH]c2=O)nn1`, the inhibition entry in assay [1] and in assay [2] was “inactive” in each case.

For orientation: IC50 means the point on the concentration scale where inhibition reaches its midpoint. A higher IC50 goes with weaker potency.
